Data on 1 molecule can be found in patent publication US8653304B2, “2,3-dihydro-1H-indene-2-yl urea derivative and pharmaceutical application of same” (Toray Industries, Inc., priority 2009, dated 2014).

pIC50: −log10 of the molar value.

For data set [1], the system named is skin swelling response in type IV allergic dermatitis model. Nature of the data set: Skin swelling response in type IV allergic dermatitis model. The data set is classed as in vivo. The conditions noted are these: BALB/c mouse, 24 hours after induction. As to the method: The action of Compound (I) on skin swelling response in mouse allergic dermatitis models was studied. As the allergic dermatitis models, models partially modified from a type I allergic dermatitis model and a type IV allergic dermatitis model described in documents (Inflamm. Res., 1998, Vol. 47, pp. 506-511 and Int. Arch. Allergy. Appl. Immunol., 1990, Vol. 92, pp. 356-360) were used.
To the back of each BALB/c mouse (female, 7-week old, Charles River Laboratories Japan, Inc.), 25 μL of 0.5% DNFB solution dissolved in acetone:olive oil (4:1) was applied. On the next day, the same operations were repeated to actively sensitize the mouse. Four days after the sensitization, 20 μL of 0.2% DNFB solution dissolved in acetone:olive oil (4:1) was applied to the auricle of the sensitized mouse to induce inflammation. Twenty four hours after the induction, the thickness of the auricle was measured using a Digimatic Indicator (Mitutoyo). Each test compound was dissolved in ethanol and 20 μL of 0.5 w/v % solution was applied to the auricle at 1 hour before the induction; or each test compound was suspended in 0.5% methylcellulose (Wako Pure Chemical Industries, Ltd.) and the resulting solution was orally administered at 30 mg/kg at 1 hour before the induction. The swelling ratio of the auricle was calculated according to the following equation: Auricular Swelling Ratio(%)=(A−B)/B×100

Data set [2] is described as follows: Metabolic stability in human CYP (human liver microsomes). The class given is in vitro ADME. The conditions noted are these: human liver microsomes 0.5 mg/mL, NADPH, 37° C., compound 2 μM. As to the method:
Each test compound was mixed at a concentration of 2 μM with a phosphate buffer solution containing Human liver microsomes (Xenotech) in an amount of 0.5 mg/mL. Thereafter, NADPH was added thereto, and the obtained mixture was allowed to react at 37° C. for up to 30 minutes. The reaction was terminated by adding acetonitrile, and then the resultant was centrifuged for 10 minutes at 4° C. to collect a supernatant. The supernatant was pretreated by methanol extraction method, and the concentration of the compound was analyzed by LC/MS/MS (ESI positive mode). The compound remaining rate was calculated from the obtained concentration of the compound.
(Liver microsomes are vesicles of endoplasmic reticulum, rich in cytochrome P450 enzymes.)

Data set [3] deals with HepG2 cells. Description: Ability to induce drug-induced phospholipidosis (HepG2, HCS Lipid TOX Green). To be noted: 48 hours. The class given is cell-based, human. As to the method: Whether an ability to induce phospholipidosis by Compound (I) was observed or not was studied. The evaluation of Compound 46b described in the Examples was carried out by a method partially modified from the method described in Experimental and Toxicologic Pathology (2007, Vol. 58, pp. 375-382).
Each test compound and HCS Lipid TOX Green Phospholipidosis Detection Regent (Invitrogen), which is a phospholipid staining solution, were mixed with HepG2 cells, which are a cell line derived from human hepatoma, and the cells were cultured in the presence of 5% CO2 at 37° C. for 48 hours. The culture supernatant after the culturing was removed, and Hoechest 33258 (Invitrogen), which is a nucleic acid staining solution, was added, followed by allowing the resulting mixture to react in the dark at room temperature for 20 minutes. The resultant was washed with PBS solution. Then the fluorescence intensity was measured with a microplate analyzer (Fusion-α, Packard), and FLA (a relative value when taking amiodarone hydrochloride (10 μM) as 1, the amiodarone hydrochloride being a positive control substance) was calculated according to the following equations. The case where FLA was less than 1 was judged as negative, and the case where FLA was not less than 1 was judged as positive. […]

For data set [4], the target named is human p38 MAPK α (Homo sapiens (Human), UniProt Q16539). Nature of the data set: Evaluation of p38 MAPK inhibitory activity (Alpha Screen, ATF2 phosphorylation). The class given is biochemical. The conditions noted are these: p38α/SAPK2a 1.5 nM, ATP 100 μM, biotinylated ATF2 30 nM. As to the method:
Using human p38 MAPK α, the p38 MAPK inhibitory activity of Compound (I) was studied by a method partially modified from the method described in Current Medicinal Chemistry (2004, No. 11, pp. 721-730).
A solution of each test compound solution in 100% DMSO and a p38α/SAPK2a solution (Final Concentration: 1.5 nM) (Invitrogen) were added to a 384-well plate, and then the plate was incubated at room temperature in a dark place for 1 hour. Thereafter, ATP (Final Concentration: 100 μM), which is a phosphate donor, and biotinylated ATF2 (Final Concentration: 30 nM) (upstate), which is a substrate, were added, and the resulting mixture was allowed to react at room temperature in a dark place for 1 hour (the final concentration of DMSO was 0.25%). After the reaction, an anti-phosphorylated ATF2 antibody (Final Concentration: 1 nM) (Cell Signaling), anti-IgG acceptor beads (Final Concentration: 20 μg/mL) (PerkinElmer) and streptavidin donor beads (Final Concentration: 20 μg/mL) (PerkinElmer) were added, and the resultant was incubated at room temperature in a dark place for 1 hour. Using a microplate analyzer (Fusion-α, Packard) in Alpha Screen method (Amplified Luminescent Proximity Homogeneous Assay), the light emission was detected. The IC50 value of each compound was calculated by sigmoidal dose-response regression using Prism 4.02 (GraphPad Software, Inc.).

Data set [5] concerns TNFα production. Nature of the data set: Cytokine production suppressing activity using human whole blood (LPS stimulation). The class given is cell-based. The conditions noted are these: LPS 200 ng/mL, 37° C., 5 hours. As to the method: Using human whole blood, the inhibitory action of Compound (I) on the TNFα production by LPS stimulation was studied by a method partially modified from the method described in Journal of Medicinal Chemistry (2003, Vol. 46, pp. 4676-4686).
A solution of each test compound in 100% DMSO and human blood were mixed in a 96-well flat-bottom plate. Thereafter, LPS (Final Concentration: 200 ng/mL) was added, and the resulting mixture was allowed to react at 37° C. for 5 hours (the final concentration of DMSO was 0.2%). After the reaction, the resultant was centrifuged for 20 minutes at room temperature, and the supernatant was collected. For the measurement of the TNFα amount in the supernatant, a human cytokine kit (CIS bio international) was used. As a comparative control compound, Comparative Compound 2 was used.

As usually defined, the microsomal CLint is the capacity of the preparation to metabolise the compound, expressed as a volume cleared per time. The low end stands for slow turnover, the high end for rapid turnover. As usually defined, the pIC50 is the IC50 on a negative log10 scale, so that one unit is a factor of ten.

Sequence of human p38 MAPK α (Q16539 whole entry): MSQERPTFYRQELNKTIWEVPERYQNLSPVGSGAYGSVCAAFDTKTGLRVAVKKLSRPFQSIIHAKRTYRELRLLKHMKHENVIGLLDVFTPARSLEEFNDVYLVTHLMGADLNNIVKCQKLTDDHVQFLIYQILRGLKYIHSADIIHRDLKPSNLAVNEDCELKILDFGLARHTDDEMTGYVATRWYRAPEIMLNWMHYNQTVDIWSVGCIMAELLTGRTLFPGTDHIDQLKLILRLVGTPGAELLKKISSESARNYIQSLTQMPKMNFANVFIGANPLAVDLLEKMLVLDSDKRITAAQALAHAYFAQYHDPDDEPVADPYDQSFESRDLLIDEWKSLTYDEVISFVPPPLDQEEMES

As to `COc1c(NC(=O)N[C@@H]2Cc3ccccc3[C@@H]2O)cc(C(C)(C)C)cc1[C@@H](O)C(F)(F)F` [Compound 46b, 1-(5-tert-butyl-2-methoxy-3-((R)-2,2,2-trifluoro-1-hydroxyethyl)phenyl)-3-((1S,2R)-1-hydroxy-2,3-dihydro-1H-indene-2-yl)urea], the “suppression ratio of auricular swelling, oral administration” value in data set [1] (30 mg/kg oral 1 hour before induction) amounted to 37.7%. Further, the “suppression ratio of auricular swelling, auricular application” value in data set [1] (20 μL of 0.5 w/v % solution on auricle 1 hour before induction) amounted to 49.2%. In data set [2], this molecule showed a microsomal CLint at 2 μM of 94 µL/min/mg. Further, in data set [3] (concentration up to 10 μM), the “FLA value (relative to amiodarone hydrochloride 10 μM as 1)” value was “less than 1”. In data set [3] (up to 10 μM, FLA less than 1 = negative), the phospholipidosis judgement entry is reported as “negative”. Moreover, the pIC50 is 7.82 in data set [4] and 6.29 in data set [5].
